From PubChem BioAssay (NCI)
“And” between values parts separate entries of the source, which are not always exact repeats. Identical values can stand only once.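 All cell lines were grown in 96-well plates and treated with compound for 48 hours. The concentration for 50% growth inhibition is given as GI50. TGI: concentration producing complete growth inhibition.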

How the values were obtained:
Test in all cases: NCI anticancer screen, dose series, 48 h
CAKI-1 renal = test system: CAKI-1 renal
LOX IMVI melanoma = test system: LOX IMVI melanoma
MOLT-4 leukemia = test system: MOLT-4 leukemia
OVCAR-3 ovarian = test system: OVCAR-3 ovarian
RPMI-8226 leukemia = test system: RPMI-8226 leukemia
SF-268 CNS = test system: SF-268 CNS
UACC-62 melanoma = test system: UACC-62 melanoma
SNB-19 CNS = test system: SNB-19 CNS
MCF7 breast = test system: MCF7 breast
MDA-MB-231 breast = test system: MDA-MB-231 breast

SMILES | TGI (CAKI-1 renal) [µM] | TGI (LOX IMVI melanoma) [µM] | TGI (MOLT-4 leukemia) [µM] | TGI (OVCAR-3 ovarian) | TGI (RPMI-8226 leukemia) | TGI (SF-268 CNS) [µM] | TGI (UACC-62 melanoma) | GI50 (CAKI-1 renal) | GI50 (LOX IMVI melanoma) | GI50 (MOLT-4 leukemia) | GI50 (OVCAR-3 ovarian) | GI50 (RPMI-8226 leukemia) | GI50 (SF-268 CNS) | GI50 (SNB-19 CNS) [µM] | TGI (SNB-19 CNS) [µM] | GI50 (UACC-62 melanoma) | GI50 (MCF7 breast) | TGI (MCF7 breast) [µM] | GI50 (MDA-MB-231 breast) [µM] | TGI (MDA-MB-231 breast) [µM]
Cc1ccc(/C=N/NS(=O)(=O)c2ccccc2)cc1C | > 100 | > 100 | > 100 | > 100 µM | > 100 µM | > 100 | > 100 µM | – | – | – | – | – | – | – | – | – | – | – | – | –
C1C[OH+]CCNCC[OH+]CC[OH+]CCN1.N.[Cl-].[Pt+4] | > 100 | > 100 | > 100 | > 100 µM | > 100 µM | > 100 | > 100 µM | 29 µM | 33.2 µM | 59.8 µM | 89.1 µM | 27.5 µM | > 100 µM | > 100 | > 100 | 31.6 µM | – | – | – | –
CCCCCCCC(=O)OCC1OC(n2cc(F)c(=O)[nH]c2=O)C(N)C(O)C1O (centres undefined) | > 100 | – | > 100 | > 100 µM | > 100 µM | > 100 | > 100 µM | – | – | – | – | – | – | – | > 100 | – | – | – | – | –
CCCCc1n(Cc2ccc3ccccc3n2)cc[n+]1Cc1ccc2ccccc2n1 | – | 4.67 | 11 | 10.7 µM | 3.28 µM | 14.3 | 3.56 µM | – | 1.52 µM | 1.81 µM | 0.698 µM | 0.295 µM | 2.18 µM | 0.826 | 12.9 | 0.749 µM | 0.807 µM | 11.2 | 1.77 | 9.35
CCC[CH2][Sn]1([CH2]CCC)[O]CC[S]1 | 1.51 | 1.7 | 2.4 | 2.13 µM | 0.551 µM | 1.44 | 1.56 µM | 0.221 µM | 0.459 µM | 0.37 µM | 0.848 µM | 0.162 µM | 0.363 µM | 0.446 | 1.6 | 0.392 µM | – | – | – | –
FC(F)(F)c1cc(NC(=S)N2c3ccccc3-n3cccc3C2c2cccnc2)cc(C(F)(F)F)c1 (centres undefined) | 21.7 | – | 20.2 | 9.47 µM | 18.7 µM | 28.5 | 24.4 µM | 5.36 µM | – | 3.96 µM | 3.01 µM | 3.84 µM | 9.91 µM | 7.55 | 29.9 | 11.7 µM | 12.9 µM | 32 | 8.39 | 31.1
CC[O-].CC[O-].O=C([CH-]C(=O)c1ccccc1)CCCCCCC(=O)[CH-]C(=O)c1ccccc1.[Ti+4] | > 100 | > 100 | > 100 | > 100 µM | > 100 µM | > 100 | > 100 µM | > 100 µM | > 100 µM | > 100 µM | > 100 µM | > 100 µM | > 100 µM | > 100 | > 100 | > 100 µM | – | – | – | –
CN=C1CN=C(OP(=O)(N2CCOCC2)N2CCOCC2)c2cc(Cl)ccc2N1 | > 100 | > 100 | > 100 | > 100 µM | > 100 µM | – | > 100 µM | – | – | – | – | – | – | – | > 100 | – | – | – | – | –
CC(=O)[CH-]C(C)=O.CC(=O)[CH-]C(C)=O.[Cl-].[O]=[V] | > 100 | 44.5 | – | 51.6 µM | – | – | 59.1 µM | 55.3 µM | 14.9 µM | – | 25.5 µM | – | – | 39.9 | > 100 | 20 µM | – | – | – | –
OCCN(CCO)c1nc(N2CCCCC2)c2nc(N(CCO)CCO)nc(N3CCCCC3)c2n1 | > 100 | > 100 | 56.5 | 32.6 µM | – | – | – | – | – | – | – | – | – | – | – | – | – | – | – | > 100
COc1ccc(C2=NN(C(C)=O)C(c3ccc(Oc4ccnc5cc(Cl)ccc45)c(OC)c3)C2)cc1 (centres undefined) | > 100 | – | > 100 | > 100 µM | > 100 µM | > 100 | > 100 µM | > 100 µM | – | > 100 µM | 5.4 µM | > 100 µM | 9.28 µM | 26.8 | > 100 | 5.35 µM | 29.4 µM | > 100 | 7.52 | > 100
CCOC(=O)c1c(-c2ccc(OC)c(O)c2)c(C#N)c(=S)n(C2OC(COC(C)=O)C(OC(C)=O)C(OC(C)=O)C2OC(C)=O)c1-c1ccccc1 (centres undefined) | > 100 | > 100 | > 100 | 45.2 µM and > 100 µM | 81.5 µM and > 100 µM | > 100 | 34.1 µM and > 100 µM | 34.5 µM and > 100 µM | 34.8 µM and > 100 µM | 38.3 µM and > 100 µM | 20.9 µM and > 100 µM | 36.5 µM and 6.1 µM | 34 µM and > 100 µM | – | > 100 | 17.1 µM and > 100 µM | 28.2 µM and > 100 µM | > 100 | – | –
O=C1c2ccccc2C(=O)c2c1oc1c2c(=O)[nH]c2ccc(Cl)cc21 | – | 1.3 | 3.14 | 0.557 µM | 2.64 µM | 3.99 | 1.15 µM | – | 0.321 µM | 0.435 µM | 0.239 µM | 0.387 µM | 0.456 µM | 0.312 | 1.1 | 0.285 µM | 0.23 µM | 1.05 | 0.165 | 0.519
C[N+](C)(C)C1CC([N+](C)(C)C)C2c3ccccc3C21 (centres undefined) | > 100 | > 100 | – | > 100 µM | > 100 µM | > 100 | > 100 µM | – | – | – | – | – | – | – | > 100 | – | – | – | – | –
O=S1(=O)c2cc(S(=O)(=O)n3ccnc3)ccc2NC2=NCCCN21 | > 100 | > 100 | > 100 | 47.8 µM | > 100 µM | > 100 | > 100 µM | – | – | – | – | – | – | – | > 100 | – | – | – | – | –
N#CC(C(=O)CCC(=O)Nc1cccc(C(F)(F)F)c1)c1ccccc1 (centres undefined) | > 100 | > 100 | > 100 | > 100 µM | > 100 µM | > 100 | > 100 µM | – | – | – | – | – | – | – | > 100 | – | – | – | – | –
COc1ccccc1NC(=O)C1=C(C)NC(C)=C(C(=O)Nc2ccccc2OC)C1c1ccccc1Cl | > 100 | > 100 | > 100 | > 100 µM | > 100 µM | > 100 | > 100 µM | – | – | – | – | – | – | – | > 100 | – | – | – | – | –
